Some test systems named below: DLD-1 colon; DMS 114 small cell lung; M19-MEL melanoma; LXFL 529 NSCLC; SNB-78 CNS; RXF-631 renal; KM20L2 colon; DMS 273 small cell lung; COLO 205 colon; T-47D breast; MCF7 breast; BT-549 breast; HS 578T breast; A498 renal.
Common to all, as to assay: growth of human tumour cells (NCI), 48 h

SMILES strings stand for the structures.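 48-hour exposure; five concentrations; linearly interpolated endpoints. Abbreviation: GI50, concentration required for 50% inhibition of growth. The concentration for full growth arrest is given as TGI.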

The text below walks through data of PubChem BioAssay (NCI).

With `CCOC(=O)c1ncoc1[C@H]1COC(C)(C)O1`, the TGI with DLD-1 colon, in the experiment with DMS 114 small cell lung, in the experiment on M19-MEL melanoma, with LXFL 529 NSCLC, in the experiment with SNB-78 CNS and in the experiment on RXF-631 renal was above 100 µM throughout. Also, the TGI in the experiment on KM20L2 colon and with DMS 273 small cell lung was above 100 µM each time.
With `O=C(c1ccccc1)c1nn(-c2ccc(Cl)cc2)c2nc3nc(-c4ccccc4)cc(=O)n3nc12`, the GI50 is 47.2 µM in the experiment on COLO 205 colon; 65.9 µM with T-47D breast; 40.9 µM in the experiment on MCF7 breast; 26.2 µM in the experiment with BT-549 breast; 28.9 µM with HS 578T breast; 58.8 µM in the experiment on A498 renal. Moreover, the TGI in the experiment on COLO 205 colon is above 100 µM; in the experiment on T-47D breast, above 100 µM; with MCF7 breast, above 100 µM; in the experiment on BT-549 breast, 62.8 µM; with HS 578T breast it was above 100 µM; in the experiment on A498 renal, above 100 µM.
